These results are taken from PMC4865845, “A human genome-wide loss-of-function screen identifies effective chikungunya antiviral drugs” (Nature Communications, 2016).

This series has as its system CHIKV. The format is cell-based, chikungunya virus.

The substance “Hs_LBX1_2 (sense CAAGGCCGAGATGACTTCCAA; chemistry not given here)” had a Score_si1 of 2. “s19990 (sense GGCTCTGACTACAAACTGA; chemistry not given here)” returned a Score_si3 of 0.89. “s38817 (GCAAATCTCTCTATCCTTA; chemistry not given here)” showed a Score_si4 of 0.06. “Hs_WIG1_2 (CAGGCTCATTATCAGGGTAAA; chemistry not given here)” returned a Score_si4 of -0.33.

“s38777 (GGCTCAAACTGGGAGTCAA; chemistry not given here)” had a Score_si2 of 1.07. On to “Hs_TRAF2_5 (CACGAGGGCATATATGAAGAA; chemistry not given here) [reference compound]”, for which the Score_si4 is given as -0.76. On to “s18076 (GAAATACCCTATTACCAAA; chemistry not given here) [reference compound]”, for which the Score_si3 is -0.61. On the same count and under the same terms, in the case of “s18240 (GATTGATGCTGGAAGTAGA; chemistry not given here)” it was 1.21. “s37714 (GCTCCTCAAAGGATATGAA; chemistry not given here)”: the Score_si4 is given as -0.71. With “Hs_SEC61B_1 (sense TTTAATTCACTTATACTGAAA; chemistry not given here)”, the Score_si1 was 1.55. Regarding “Hs_AP3S2_1 (TGGGATGGTGTTGGAAACAAA; chemistry not given here)”, the Score_si2 worked out at 1.11.

With “s21624 (sense GGTGTAACCGATTCACTAT; chemistry not given here)”, the Score_si3 is reported as 0.86.

In the case of “Hs_SULF1_1 (sense TCCGTCGAATTTGAAGGTGAA; chemistry not given here) [reference compound]”, the Score_si1 is reported as -2.1. “s19989 (sense CTATGCTACCCTCTACTTT; chemistry not given here)” yielded a Score_si4 of 0.18. For the substance “s28640 (CACTCACACCATCCTATGA; chemistry not given here)”, the Score_si1 is on record as 1.62.

Consider “Hs_DOK6_5 (CTGAGCAACATGAAAGATTAA; chemistry not given here) [reference compound]”, for which the Score_si1 was -2.96.

In the case of “s619 (sense CTGCAGTTGTGGTTGGATA; chemistry not given here)”, the Score_si1 was found to be 1.92. For “s50143 (sense AAATAAATCTGGTGCATTA; chemistry not given here) [reference compound]”, the Score_si4 is reported as -0.41. On the same count and under the same terms, under “s17302 (GCTCCTTTAGGTTATGATA; chemistry not given here)” stands -0.05. As for “s16999 (GCACGTAACAGCTAAGGAA; chemistry not given here)”, the Score_si2 is reported as 1.29.

For the substance “s15562 (sense GCTTAGAAATGGACGACGA; chemistry not given here) [reference compound]”, the Score_si3 is -0.27. Regarding “Hs_HTATIP_8 (sense CACCACATTGCCTGTCCTCTA; chemistry not given here)”, the Score_si1 turned out to be 2.67. For the substance “s27208 (sense GACACTTGTTTCTTACCTA; chemistry not given here) [reference compound]”, the Score_si4 was determined as 0.22. In the case of “Hs_EXOSC1_2 (AAGCAGAGAAAGACATCTAAA; chemistry not given here) [reference compound]”, the Score_si1 is listed as -2.21.

With “s12110 (sense CAATCTCTCTTATCCTTGA; chemistry not given here)”, the Score_si2 was determined as 1.28.

The substance “Hs_NDUFA2_2 (TCCACTGAGGATTAAGAGCAA; chemistry not given here)” came in with a Score_si1 of 2.51. The substance “Hs_TOR2A_2 (CACGGGTGGCGAGCAGATCAA; chemistry not given here)” yielded a Score_si1 of 2.35.

In turn, “s11587 (sense CAGGTCACATTGTTCCTGA; chemistry not given here)” displayed a Score_si2 of 1.27.

“s21424 (sense GCAGTGAAATATCCATGAT; chemistry not given here)” displayed a Score_si2 of 0.74. As for “Hs_C15orf15_1 (CAGCATTTGTATAGTAACTAA; chemistry not given here)”, the Score_si1 came to 1.89. Take “s17901 (GGAAATCGGCCTACAAGAT; chemistry not given here)”: the Score_si3 was 1.51. On to “Hs_RARSL_3 (sense CACAGGAGTCTTCCTACAGTA; chemistry not given here) [reference compound]”, for which the Score_si1 is given as -2.94. “Hs_PEX19_4 (CTGGATCTTATGCAGCAGCTA; chemistry not given here)” gave a Score_si2 of 0.89.

Regarding “s7586 (sense CCTACTGTCTGGTAGCGAT; chemistry not given here)”, the Score_si2 came out at 1.49. Same read-out and setting: under “s31658 (CGGCCTCTGAGGTGATCAA; chemistry not given here)” stands 1.55.

For the substance “Hs_POU3F2_2 (AAGATGAAAGTTACCACTGAA; chemistry not given here)”, the Score_si1 worked out at 2.65. The same measure, in the same setting: under “Hs_GPSN2_2 (sense GTGGATGGCCTATTACATCAA; chemistry not given here)” stands 2.86. Substance “s28379 (sense GAGTTACGATTGTACCCTA; chemistry not given here)” had a Score_si3 of 1.67. The substance “Hs_ATP6AP2_2 (AAGAGTGTATATGGTAGGGAA; chemistry not given here)” showed a Score_si4 of 0.62. The substance “s35330 (CGGTGACTATGAAAGAAAT; chemistry not given here)” gave a Score_si4 of 0.15. For the substance “Hs_SDFR1_10 (sense ACAGGTATATACAGCATATAA; chemistry not given here) [reference compound]”, the Score_si2 was -2.32. “Hs_HSPE1_4 (sense CTGAAATAAGTCACTATTGAA; chemistry not given here)”: the Score_si4 is 1.81.

“s195643 (sense CCCTAGGCGCTGGATTTTG; chemistry not given here)” yielded a Score_si4 of 0.23. Substance “Hs_RAB3D_5 (sense TCCGTGGTGCCTTCTAGCTTA; chemistry not given here)” gave a Score_si3 of 0.91. As to “s26802 (sense ACATCTCAGGGACCCATTT; chemistry not given here)”, the Score_si4 was 1.65.

In turn, “Hs_GUCY1B3_1 (sense AAGGGTCAAATGATCTACTTA; chemistry not given here) [reference compound]” gave a Score_si2 of -0.88.

Take “s35331 (GCAGGTAATCTCTATACTA; chemistry not given here)”: the Score_si2 is 1.81. For the substance “Hs_SYMPK_1 (sense CAGGAGCTGATCATCAACAAA; chemistry not given here)”, the Score_si3 is 1.54. Consider “Hs_MGC11102_1 (TAGCGTGGCTTTAAACATATA; chemistry not given here)”, for which the Score_si2 is on record as 1.11. The substance “Hs_CDK4_2 (sense CAAGGTAACCCTGGTGTTTGA; chemistry not given here)” gave a Score_si1 of 1.6. The substance “Hs_MAP3K14_6 (TACCTAGTGCATGCTCTGCAA; chemistry not given here)” showed a Score_si3 of 1.59.

“Hs_LOH12CR1_1 (sense CCCGATGTCATCAAGTTGCAA; chemistry not given here)” displayed a Score_si1 of 2.42.

For the substance “s31789 (AGGACATTATCAACCCGGA; chemistry not given here)”, the Score_si3 stood at 1.5. The substance “Hs_FLJ31164_2 (sense CCAGCTGAGCACCCGAATAAA; chemistry not given here)” showed a Score_si4 of 0.41. “Hs_KRTHA2_1 (sense CAGATGGAGGAGCTTAACCAA; chemistry not given here)” yielded a Score_si1 of 1.15. “Hs_DLD_4 (TCGCTTGAATTTAGACAAGAT; chemistry not given here)” yielded a Score_si2 of 1.23.

For “s993 (GGTGCGTCATATGCAGGAA; chemistry not given here) [reference compound]”, the Score_si2 is listed as -0.55.

In turn, “Hs_RORC_3 (sense CCGGGCCTACAATGCTGACAA; chemistry not given here)” showed a Score_si4 of 0.9.

“s9325 (CTTCAGTGCTGATCAGGTA; chemistry not given here)” returned a Score_si4 of 0.41. Take “Hs_FLJ00193_2 (GAGCAGCTACATGGAGATGAA; chemistry not given here)”: the Score_si1 was determined as 2.41. Take “s33489 (GGACTTCTGAAAATTCGCA; chemistry not given here)”: the Score_si2 was found to be 1.9. On to “s35018 (GTGTGAAGGTAGACCGTGA; chemistry not given here)”, for which the Score_si4 turned out to be 0.46.

As for “Hs_CALM2_7 (CAAAGGAATTGGGAACTGTAA; chemistry not given here)”, the Score_si1 is on record as 3.2.

The substance “s17592 (GCAACTCTCCTTCACCAAT; chemistry not given here) [reference compound]” had a Score_si4 of -0.08. “Hs_PRPF40A_2 (sense CTGGAAAGCCTTACTATTATA; chemistry not given here)” returned a Score_si1 of 2.41. For the substance “s19038 (sense GGAATATTCTTCAGCTACA; chemistry not given here)”, the Score_si3 was determined as 1.51. Turning to “Hs_CCNF_3 (sense CACAGATGGCGTCAATGTGAA; chemistry not given here)”, the Score_si2 worked out at 1.09.

As for “Hs_SULF1_4 (sense AGCATGGATTTGATTATGCAA; chemistry not given here) [reference compound]”, the Score_si2 is on record as -1.41. The same measure, in the same setting: in the case of “Hs_GPS1_6 (sense CAGCCTGGATCTGGAACAGTA; chemistry not given here)” it was 1.76; in that of “Hs_NRCAM_3 (GACGTTTGGTTTAAAGAATTA; chemistry not given here)”, 0.93. With “Hs_KIAA0947_2 (sense CTGGCAGTTTATTGCTCTTAA; chemistry not given here)”, the Score_si1 was determined as 2.71. Turning to “Hs_GNB2L1_2 (sense CAGATTGTCTCTGGATCTCGA; chemistry not given here)”, the Score_si1 worked out at 2.65. As for “s9030 (CATCTGGAATTAACTGGAT; chemistry not given here)”, the Score_si3 is given as 1.53.
